Data as given in patent US6525001B1, “Substituted pyrimidine and pyridine herbicides” (Mid-American Commercialization Corporation, priority 1997, dated 2003).

How the values were obtained:
Assay type in all cases: in vivo
[1] = test system: pitted morningglory (Ipomoea lacunosa); assay: Test E pre-/postemergence/post directed
How it was run: (§1)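 Injury was scored visually on a 0 to 100 scale (100 = complete control) 13 to 21 days after treatment of greenhouse-grown plants. Test chemicals, in a surfactant-containing non-phytotoxic solvent, were sprayed onto soil within a day of planting, onto plants at the two to four leaf stage, or directed at the base of the plants.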

[2] = test system: alexandergrass (Brachiaria plantaginea); assay: Test E pre-/postemergence/post directed
How it was run: as §1

[3] = test system: surinam grass (Brachiaria decumbens); assay: Test E pre-/postemergence/post directed
How it was run: as §1

[4] = test system: bermudagrass (Cynodon dactylon); assay: Test E pre-/postemergence/post directed
How it was run: as §1

[5] = test system: common ragweed (Ambrosia elatior); assay: Test E pre-/postemergence/post directed
How it was run: as §1

[6] = test system: common groundsel (Senecio vulgaris); assay: Test E pre-/postemergence/post directed; conditions: PREEMERGENCE
How it was run: as §1

[7] = test system: itchgrass (Rottboellia exaltata); assay: Test E pre-/postemergence/post directed
How it was run: as §1

[8] = test system: large crabgrass (Digitaria sanguinalis); assay: Test E pre-/postemergence/post directed
How it was run: as §1

[9] = test system: johnson grass (Sorghum halepense); assay: Test E pre-/postemergence/post directed
How it was run: as §1

[10] = test system: sandbur (Cenchrus echinatus); assay: Test E pre-/postemergence/post directed
How it was run: as §1

[11] = test system: Spanishneedles (Bidens bipinnata); assay: Test E pre-/postemergence/post directed
How it was run: as §1

[12] = test system: eastern black nightshade (Solanum ptycanthum); assay: Test C; set-up: key: 0 was no effect; 100 was complete control; conditions: PREEMERGENCE
[13] = test system: wild poinsettia (Euphorbia heterophylla); assay: Test C; set-up: key: 0 was no effect; 100 was complete control; conditions: PREEMERGENCE
[14] = test system: ivyleaf morningglory (Ipomoea hederacea); assay: Test C; set-up: key: 0 was no effect; 100 was complete control; conditions: PREEMERGENCE
[15] = test system: lambsquarters (Chenopodium album); assay: Test C; set-up: key: 0 was no effect; 100 was complete control; conditions: PREEMERGENCE
[16] = test system: large crabgrass (Digitaria sanguinalis); assay: Test C; set-up: key: 0 was no effect; 100 was complete control; conditions: PREEMERGENCE
[17] = test system: velvetleaf (Abutilon theophrasti); assay: Test C; set-up: key: 0 was no effect; 100 was complete control; conditions: PREEMERGENCE
[18] = test system: arrowleaf sida (Sida rhombifolia); assay: Test C; set-up: key: 0 was no effect; 100 was complete control; conditions: PREEMERGENCE
[19] = test system: purple nutsedge (Cyperus rotundus); assay: Test E pre-/postemergence/post directed; set-up: key: 0 is no injury; 100 is complete control
How it was run: as §1

[20] = test system: sandbur (Cenchrus echinatus); assay: Test E pre-/postemergence/post directed; set-up: key: 0 is no injury; 100 is complete control; conditions: PREEMERGENCE, Rate 32 g/ha
How it was run: as §1

**Q.** What does the source list for `Cc1cnc(-n2ccc(C(F)(F)F)n2)nc1Cn1ccc(C(F)(F)F)n1` [Compound 52]?
**A.** Plant response rating, P. morninglory ([1]; POSTEMERGENCE, Rate 125 g/ha): 80; Plant response rating, P. morninglory ([1]; POSTEMERGENCE, Rate 250 g/ha): 80; Plant response rating, P. morninglory ([1]; PREEMERGENCE, Rate 32 g/ha): 50; Plant response rating, Alexandergrass ([2]; POSTEMERGENCE, Rate 125 g/ha): 10; Plant response rating, Alexandergrass ([2]; POSTEMERGENCE, Rate 250 g/ha): 75; Plant response rating, Alexandergrass ([2]; PREEMERGENCE, Rate 32 g/ha): 20; Plant response rating, Alexandergrass ([2]; PREEMERGENCE, Rate 64 g/ha): 75; Plant response rating, Alexandergrass ([2]; PREEMERGENCE, Rate 125 g/ha): 75; Plant response rating, Surinam grass ([3]; POSTEMERGENCE, Rate 125 g/ha): 75; Plant response rating, Surinam grass ([3]; POSTEMERGENCE, Rate 250 g/ha): 75; Plant response rating, Surinam grass ([3]; PREEMERGENCE, Rate 32 g/ha): 30; Plant response rating, Surinam grass ([3]; PREEMERGENCE, Rate 64 g/ha): 70; Plant response rating, Surinam grass ([3]; PREEMERGENCE, Rate 125 g/ha): 80; Plant response rating, Bermudagrass ([4]; POSTEMERGENCE, Rate 125 g/ha): 35; Plant response rating, Bermudagrass ([4]; POSTEMERGENCE, Rate 250 g/ha): 35; Plant response rating, Bermudagrass ([4]; PREEMERGENCE, Rate 32 g/ha): 70; Plant response rating, Bermudagrass ([4]; PREEMERGENCE, Rate 64 g/ha): 90; Plant response rating, Com. ragweed ([5]; POSTEMERGENCE, Rate 125 g/ha): 50; Plant response rating, Com. ragweed ([5]; POSTEMERGENCE, Rate 250 g/ha): 80; Plant response rating, Com. ragweed ([5]; PREEMERGENCE, Rate 32 g/ha): 35; Plant response rating, Com. ragweed ([5]; PREEMERGENCE, Rate 64 g/ha): 80; Plant response rating, Com. groundsel ([6]; Rate 32 g/ha): 35; Plant response rating, Com. groundsel ([6]; Rate 64 g/ha): 98; Plant response rating, Itchgrass ([7]; POSTEMERGENCE, Rate 125 g/ha): 35; Plant response rating, Itchgrass ([7]; POSTEMERGENCE, Rate 250 g/ha): 40; Plant response rating, Itchgrass ([7]; PREEMERGENCE, Rate 32 g/ha): 35; Plant response rating, Itchgrass ([7]; PREEMERGENCE, Rate 64 g/ha): 70; Plant response rating, Itchgrass ([7]; PREEMERGENCE, Rate 125 g/ha): 80; Plant response rating, Large crabgrass ([8]; POSTEMERGENCE, Rate 125 g/ha): 5; Plant response rating, Large crabgrass ([8]; POSTEMERGENCE, Rate 250 g/ha): 80; Plant response rating, Large crabgrass ([8]; PREEMERGENCE, Rate 32 g/ha): 98; Plant response rating, Johnsongrass ([9]; POSTEMERGENCE, Rate 125 g/ha): 35; Plant response rating, Johnsongrass ([9]; POSTEMERGENCE, Rate 250 g/ha): 20; Plant response rating, Johnsongrass ([9]; PREEMERGENCE, Rate 64 g/ha): 50; Plant response rating, Johnsongrass ([9]; PREEMERGENCE, Rate 125 g/ha): 75; Plant response rating, Sandbur ([10]; POSTEMERGENCE, Rate 125 g/ha): 5; Plant response rating, Sandbur ([10]; POSTEMERGENCE, Rate 250 g/ha): 60; Plant response rating, Sandbur ([10]; PREEMERGENCE, Rate 64 g/ha): 10; Plant response rating, Sandbur ([10]; PREEMERGENCE, Rate 125 g/ha): 50; Plant response rating, Spanishneedles ([11]; POSTEMERGENCE, Rate 125 g/ha): 65; Plant response rating, Spanishneedles ([11]; POSTEMERGENCE, Rate 250 g/ha): 60; Plant response rating, Spanishneedles ([11]; PREEMERGENCE, Rate 32 g/ha): 20; Plant response rating, Spanishneedles ([11]; PREEMERGENCE, Rate 64 g/ha): 20; Plant response rating, Spanishneedles ([11]; PREEMERGENCE, Rate 125 g/ha): 35; Plant response rating, E. blacknightsh ([12]; Rate 35 g/ha): 40; Plant response rating, E. blacknightsh ([12]; Rate 70 g/ha): 80; Plant response rating, E. blacknightsh ([12]; Rate 140 g/ha): 100; Plant response rating, Wild poinsettia ([13]; Rate 70 g/ha): 40; Plant response rating, Wild poinsettia ([13]; Rate 140 g/ha): 100; Plant response rating, I. morningglory ([14]; Rate 35 g/ha): 5; Plant response rating, I. morningglory ([14]; Rate 70 g/ha): 100; Plant response rating, I. morningglory ([14]; Rate 140 g/ha): 100; Plant response rating, Lambsquarters ([15]; Rate 35 g/ha): 100; Plant response rating, Lambsquarters ([15]; Rate 70 g/ha): 100; Plant response rating, Lambsquarters ([15]; Rate 140 g/ha): 100; Plant response rating, Large crabgrass ([16]; Rate 35 g/ha): 100; Plant response rating, Large crabgrass ([16]; Rate 70 g/ha): 100; Plant response rating, Large crabgrass ([16]; Rate 140 g/ha): 100; Plant response rating, Velvetleaf ([17]; Rate 35 g/ha): 70; Plant response rating, Velvetleaf ([17]; Rate 70 g/ha): 100; Plant response rating, Velvetleaf ([17]; Rate 140 g/ha): 100; Plant response rating, Arrowleaf sida ([18]; Rate 35 g/ha): 100; Plant response rating, Arrowleaf sida ([18]; Rate 70 g/ha): 100; Plant response rating, Arrowleaf sida ([18]; Rate 140 g/ha): 100; Plant response rating, Purple nutsedge ([19]; POSTEMERGENCE, Rate 125 g/ha): 40; Plant response rating, Purple nutsedge ([19]; POSTEMERGENCE, Rate 250 g/ha): 50; Plant response rating, Purple nutsedge ([19]; PREEMERGENCE, Rate 32 g/ha): 5; Plant response rating, Purple nutsedge ([19]; PREEMERGENCE, Rate 64 g/ha): 30; Plant response rating, Purple nutsedge ([19]; PREEMERGENCE, Rate 125 g/ha): 50; Plant response rating, Sandbur [20]: 0
